Measurements: PubChem BioAssay (NCI)
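These data come from cells grown in 96-well plates and exposed to compound for 48 hours at five concentrations. The concentration for full growth arrest is given as TGI.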

Assays:
Test in all cases: DTP human tumour cell line panel, 48 h
RPMI-8226 leukemia = test system: RPMI-8226 leukemia
SF-268 CNS = test system: SF-268 CNS
OVCAR-4 ovarian = test system: OVCAR-4 ovarian
NCI/ADR-RES ovarian = test system: NCI/ADR-RES ovarian
M14 melanoma = test system: M14 melanoma
OVCAR-8 ovarian = test system: OVCAR-8 ovarian
NCI-H226 lung = test system: NCI-H226 lung
ACHN renal = test system: ACHN renal
MDA-MB-435 = test system: MDA-MB-435
MDA-MB-231 breast = test system: MDA-MB-231 breast

SMILES	TGI (RPMI-8226 leukemia) [µM]	TGI (SF-268 CNS) [µM]	TGI (OVCAR-4 ovarian) [µM]	TGI (NCI/ADR-RES ovarian) [µM]	TGI (M14 melanoma) [µM]	TGI (OVCAR-8 ovarian) [µM]	TGI (NCI-H226 lung) [µM]	TGI (ACHN renal) [µM]	TGI (MDA-MB-435) [µM]	TGI (MDA-MB-231 breast) [µM]
CCN(CC(=O)O)CC(=O)O	> 100	> 100	> 100	> 100	> 100	> 100	> 100	> 100	> 100	> 100
CNc1ccc2c(c1)Cc1ccccc1-2	> 100	> 100	> 100	> 100	71.3	59.6	> 100	> 100	69.3	> 100
COc1cc(-c2c3c(cc4c2OCO4)[C@@H](Nc2ccc4c(c2)Cc2cc(N[C@@H]5c6cc7c(cc6C(c6cc(OC)c(O)c(OC)c6)[C@H]6C(=O)OC[C@H]56)OCO7)ccc2-4)[C@H]2COC(=O)[C@@H]2C3)cc(OC)c1O (stereo not given in full)	> 100	> 100	–	42.2	50.3	> 100	> 100	> 100	33.1	> 100
CC1(C)[C@@H]2C[C@H]1c1cnc(-c3ccccn3)cc1[C@H]2C(O)[C@@H]1c2cc(-c3ccccn3)ncc2[C@H]2C[C@@H]1C2(C)C (stereo not given in full)	1.93	16.6	> 9.95	1.41	1.85	3.1	0.502	1.54	> 38.5	3.89
CCOC(=O)/C(=C/c1ccco1)P(=O)(OCC)OCC	> 100	> 100	> 100	–	> 100	> 100	> 100	> 100	–	–
CCOC1NC(=O)c2ccccc21 (stereo not given)	> 100	> 100	> 100	> 100	> 100	> 100	> 100	> 100	> 100	> 100
CN(C)c1nc(=NCc2ccccn2)ss1	> 10	> 10	> 10	> 10	> 10	> 10	> 10	> 10	> 10	> 10
FC(F)=C(c1ccc(-c2ccc(Cl)cc2)cc1)C(F)(F)F	51.8	56.3	33.5	63.8	36.1	57.9	–	31.1	49.4	46.3
C=C1CC2C(=O)N(c3ccccc3)C(=O)C2CC1n1[nH]c(=O)n(Cc2ccccc2)c1=O (stereo not given)	> 100	> 100	> 100	–	> 100	> 100	> 100	> 100	–	–
CC1=NC(C)(C)N(O)C1(C)C	> 100	> 100	> 100	> 100	> 100	> 100	> 100	> 100	> 100	> 100
COc1ccc(N2C(=O)C3c4[nH]c5ccccc5c4C4C(C)CCCC4C3C2=O)cc1 (stereo not given)	> 100	> 100	> 100	> 100	> 100	> 100	> 100	> 100	> 30.2	98.8
COc1cc(/C=C/C(=O)O)ccc1OS(=O)(=O)O	> 100	> 100	> 100	> 100	> 100	> 100	> 100	> 100	> 100	> 100
O=c1c(Cc2ccccc2)c(-c2ccccc2)[nH]n1C1=NCCN1	> 100	> 100	> 100	> 100	> 100	> 100	> 100	> 100	> 100	> 100
O=C(c1ccccc1)[C@H]1Nc2cnccc2C2c3ccccc3CC21 (stereo not given in full)	34.4	59.9	> 76.9	–	19.9	33.9	20.2	37.1	–	–
COC1OC2COC(C)(C)OC2C2OC(C)(C)OC12 (stereo not given)	93.6	> 100	> 100	> 100	> 100	> 100	76.2	> 100	> 100	> 100
O=S1(=O)c2ccccc2NC(=S)N1c1ccccc1	> 100	> 100	> 100	> 100	> 100	> 100	> 100	> 100	> 100	> 100
CN1c2ccccc2C(=O)NC12CCN(CC1COc3ccccc3O1)CC2 (stereo not given)	> 100	> 100	> 100	> 100	> 100	> 100	87.4	> 100	> 100	–
COC(=O)C1=C(C(=O)OC)C2(C)CCC(=O)C1O2 (stereo not given)	> 10	> 10	> 10	> 10	> 10	> 10	> 10	> 10	> 10	> 10
N/C(CSCCSC/C(N)=N/O)=N\O	> 100	> 100	> 100	> 100	> 100	–	> 100	> 100	> 100	> 100
COc1cc(CCCOC2OC(COC3OCC(O)C(O)C3O)C(O)C(O)C2O)cc2cc(-c3ccc4c(c3)OCO4)oc12 (stereo not given)	> 175	> 175	> 175	> 175	–	109	> 175	–	–	–
NC(=S)N=Nc1c(O)cc(Nc2ccc(Cl)cc2Cl)c2ccccc12	–	> 100	> 100	> 100	> 100	93.9	> 100	27.5	> 100	27.6
O=c1cc(-c2ccccc2F)[nH]c2cc3c(cc12)OCO3	–	> 100	> 100	0.246	5.1	–	1.81	> 100	0.0217	3.34
